Experimental data taken from ChEMBL document CHEMBL1201862, “PubChem BioAssay data set” (2004).
Active and inactive are the calls of the source.

Assays:
[1] = CCR5-tropic HIV-1 fusion blockers – cell-based, CCR5-tropic Env, dose response (AID 2279); assay type: functional
Aminopeptidase N = target: T1, Aminopeptidase N (Plasmodium falciparum FcB1/Columbia, UniProt O96935); assay: malaria alanyl aminopeptidase activity blockers – biochemical, fluorogenic H-Leu-NHMec substrate, 1536-well (AID 1445); parameters: species or system Plasmodium falciparum 3D7, 3D7
T1 sequence (O96935 whole entry): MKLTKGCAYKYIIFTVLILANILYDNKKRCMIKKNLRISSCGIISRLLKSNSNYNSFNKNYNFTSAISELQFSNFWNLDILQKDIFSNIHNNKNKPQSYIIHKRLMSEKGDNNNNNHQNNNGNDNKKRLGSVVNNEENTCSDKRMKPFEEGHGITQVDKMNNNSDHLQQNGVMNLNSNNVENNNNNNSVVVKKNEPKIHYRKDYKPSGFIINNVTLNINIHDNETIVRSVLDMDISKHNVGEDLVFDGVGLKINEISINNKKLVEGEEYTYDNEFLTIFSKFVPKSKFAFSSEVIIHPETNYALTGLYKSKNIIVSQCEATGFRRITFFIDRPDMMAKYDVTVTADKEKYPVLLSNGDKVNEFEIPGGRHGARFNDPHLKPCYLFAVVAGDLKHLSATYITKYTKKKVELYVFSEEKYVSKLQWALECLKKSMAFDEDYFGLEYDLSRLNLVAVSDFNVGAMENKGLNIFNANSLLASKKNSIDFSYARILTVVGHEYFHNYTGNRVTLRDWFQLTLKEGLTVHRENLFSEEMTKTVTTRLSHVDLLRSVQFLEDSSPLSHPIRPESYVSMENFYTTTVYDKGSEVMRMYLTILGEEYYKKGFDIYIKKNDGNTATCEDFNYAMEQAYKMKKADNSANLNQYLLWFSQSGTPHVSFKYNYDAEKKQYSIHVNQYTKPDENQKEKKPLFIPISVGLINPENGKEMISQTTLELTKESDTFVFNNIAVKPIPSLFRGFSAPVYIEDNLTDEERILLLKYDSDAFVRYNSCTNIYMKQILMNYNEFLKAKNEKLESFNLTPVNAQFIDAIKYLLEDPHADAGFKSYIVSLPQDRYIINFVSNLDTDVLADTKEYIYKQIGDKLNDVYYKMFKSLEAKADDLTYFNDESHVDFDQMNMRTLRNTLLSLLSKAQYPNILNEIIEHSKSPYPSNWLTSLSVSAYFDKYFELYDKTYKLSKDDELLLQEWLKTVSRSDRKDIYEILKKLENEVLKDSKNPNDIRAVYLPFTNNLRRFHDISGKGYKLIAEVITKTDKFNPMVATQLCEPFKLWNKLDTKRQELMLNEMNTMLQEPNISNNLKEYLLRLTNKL

Streptokinase A = target: T2, Streptokinase A (Streptococcus pyogenes serotype M1, UniProt P10520); assay: viability-normalized secreted streptokinase activity reduction – plasminogen activation absorbance, OD405, dose response (AID 1914); assay type: functional, Streptococcus pyogenes M1 GAS;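 further: secreted streptokinase activity via plasminogen activation per viability signal from cell pellet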
T2 sequence (P10520 whole entry): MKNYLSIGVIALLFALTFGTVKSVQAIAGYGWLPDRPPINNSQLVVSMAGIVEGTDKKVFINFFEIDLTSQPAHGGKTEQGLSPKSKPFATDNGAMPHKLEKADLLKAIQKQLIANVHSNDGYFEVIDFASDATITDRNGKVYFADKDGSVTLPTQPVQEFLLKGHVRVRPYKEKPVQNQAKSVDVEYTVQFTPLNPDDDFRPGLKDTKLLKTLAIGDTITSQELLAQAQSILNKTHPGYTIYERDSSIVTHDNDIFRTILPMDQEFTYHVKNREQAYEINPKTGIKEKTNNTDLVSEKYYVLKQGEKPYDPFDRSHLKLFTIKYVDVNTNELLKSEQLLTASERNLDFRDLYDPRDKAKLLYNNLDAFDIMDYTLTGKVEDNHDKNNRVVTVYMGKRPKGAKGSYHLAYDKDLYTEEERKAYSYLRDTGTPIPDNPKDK

[2] = test system: Streptococcus sp. 'group A'; assay: Streptococcus pyogenes SK(-)GAS viability under kanamycin – luminescence, BacTiterGlo, confirmation, counter-screen for streptokinase expression inhibitor project, dose response (AID 1900); assay type: functional, organism-based
Protein RecA = target: T3, Protein RecA (Mycobacterium tuberculosis, UniProt P9WHJ3); assay: Fluorescence Cell-Free Homogeneous Dose Retest to Identify Inhibitors of RecA-Intein Splicing Activity. [Related pubchem assays (depositor defined):AID2097, AID2223, AID489010, AID492950]; assay type: functional
T3 sequence (P9WHJ3 whole entry): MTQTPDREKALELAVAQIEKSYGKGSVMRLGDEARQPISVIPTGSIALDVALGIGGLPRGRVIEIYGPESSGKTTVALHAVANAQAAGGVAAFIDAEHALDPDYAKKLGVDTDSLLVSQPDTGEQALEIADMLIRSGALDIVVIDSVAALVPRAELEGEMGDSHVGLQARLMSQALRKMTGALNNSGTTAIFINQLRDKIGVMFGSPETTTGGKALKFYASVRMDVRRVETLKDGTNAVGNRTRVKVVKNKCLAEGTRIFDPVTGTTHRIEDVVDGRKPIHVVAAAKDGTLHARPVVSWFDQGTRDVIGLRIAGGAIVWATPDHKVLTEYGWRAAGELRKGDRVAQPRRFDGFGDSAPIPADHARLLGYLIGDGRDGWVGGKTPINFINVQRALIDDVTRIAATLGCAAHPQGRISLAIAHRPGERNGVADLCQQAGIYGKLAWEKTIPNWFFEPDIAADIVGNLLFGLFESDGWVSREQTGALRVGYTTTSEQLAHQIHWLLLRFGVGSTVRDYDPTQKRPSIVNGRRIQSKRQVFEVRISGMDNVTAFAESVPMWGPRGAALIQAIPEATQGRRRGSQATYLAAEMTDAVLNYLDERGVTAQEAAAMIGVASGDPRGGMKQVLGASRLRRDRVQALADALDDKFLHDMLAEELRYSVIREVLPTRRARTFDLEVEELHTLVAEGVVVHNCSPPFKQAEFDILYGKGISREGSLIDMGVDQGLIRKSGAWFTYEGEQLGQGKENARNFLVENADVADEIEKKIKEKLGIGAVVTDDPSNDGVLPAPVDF

Genome polyprotein = Genome polyprotein (dengue virus type 2, UniProt P29990); assay: flavivirus cap methylation enzyme inhibition – biochemical, confirmation dose response, primary screen (AID 588689); assay type: functional
Chain of Genome polyprotein (P29990 2492-3391 limits assumed): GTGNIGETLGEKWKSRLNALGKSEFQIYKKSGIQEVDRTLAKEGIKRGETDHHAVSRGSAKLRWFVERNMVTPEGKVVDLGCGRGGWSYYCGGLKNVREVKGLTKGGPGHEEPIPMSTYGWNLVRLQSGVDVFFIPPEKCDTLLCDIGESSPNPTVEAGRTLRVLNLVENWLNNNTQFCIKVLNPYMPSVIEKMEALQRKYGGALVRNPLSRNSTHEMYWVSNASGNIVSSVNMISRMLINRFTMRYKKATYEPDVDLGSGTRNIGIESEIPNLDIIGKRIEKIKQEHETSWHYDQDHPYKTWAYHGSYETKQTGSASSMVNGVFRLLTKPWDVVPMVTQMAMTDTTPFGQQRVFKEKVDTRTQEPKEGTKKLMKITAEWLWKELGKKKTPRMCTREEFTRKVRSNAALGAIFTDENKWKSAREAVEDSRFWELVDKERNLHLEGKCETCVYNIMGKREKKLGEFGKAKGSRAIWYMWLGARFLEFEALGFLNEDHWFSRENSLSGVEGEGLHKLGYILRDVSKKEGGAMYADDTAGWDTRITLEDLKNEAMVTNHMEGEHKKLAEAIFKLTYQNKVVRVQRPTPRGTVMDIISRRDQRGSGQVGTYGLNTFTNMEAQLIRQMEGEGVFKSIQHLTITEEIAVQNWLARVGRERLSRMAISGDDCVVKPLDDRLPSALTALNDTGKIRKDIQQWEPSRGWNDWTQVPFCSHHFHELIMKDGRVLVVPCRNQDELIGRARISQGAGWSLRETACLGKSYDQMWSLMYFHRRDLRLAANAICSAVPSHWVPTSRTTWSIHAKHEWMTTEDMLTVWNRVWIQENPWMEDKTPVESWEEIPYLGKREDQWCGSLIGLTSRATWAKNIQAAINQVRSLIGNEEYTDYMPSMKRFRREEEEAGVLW

[3] = target: T4, Replicative DNA helicase DnaB (Mycobacterium tuberculosis, UniProt P9WMR3); assay: DnaB intein splicing inhibitors, dose response, biochemical, cell-free fluorescence (AID 449749); assay type: functional
T4 sequence (P9WMR3 whole entry): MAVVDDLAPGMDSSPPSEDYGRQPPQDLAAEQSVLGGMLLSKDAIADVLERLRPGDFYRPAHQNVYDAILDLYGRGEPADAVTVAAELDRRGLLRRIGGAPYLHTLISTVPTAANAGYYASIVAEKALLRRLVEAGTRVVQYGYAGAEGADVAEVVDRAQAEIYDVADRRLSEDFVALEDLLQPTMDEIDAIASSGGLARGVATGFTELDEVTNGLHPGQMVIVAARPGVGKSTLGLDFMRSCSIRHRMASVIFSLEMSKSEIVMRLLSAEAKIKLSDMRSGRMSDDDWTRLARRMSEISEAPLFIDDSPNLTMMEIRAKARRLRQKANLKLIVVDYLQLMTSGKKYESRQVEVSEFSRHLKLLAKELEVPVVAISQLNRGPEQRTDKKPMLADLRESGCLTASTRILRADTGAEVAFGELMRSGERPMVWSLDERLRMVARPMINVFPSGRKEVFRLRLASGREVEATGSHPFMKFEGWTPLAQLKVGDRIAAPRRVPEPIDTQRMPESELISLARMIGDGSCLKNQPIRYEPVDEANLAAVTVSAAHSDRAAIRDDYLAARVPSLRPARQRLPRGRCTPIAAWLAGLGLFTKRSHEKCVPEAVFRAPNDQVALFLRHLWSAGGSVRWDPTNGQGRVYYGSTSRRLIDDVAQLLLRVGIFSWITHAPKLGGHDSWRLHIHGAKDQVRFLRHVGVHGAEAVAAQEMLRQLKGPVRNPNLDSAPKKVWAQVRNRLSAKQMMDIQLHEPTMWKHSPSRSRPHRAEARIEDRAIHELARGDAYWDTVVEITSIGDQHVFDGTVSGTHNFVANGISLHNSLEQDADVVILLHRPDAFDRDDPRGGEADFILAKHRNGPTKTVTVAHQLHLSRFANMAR

Streptococcus = assay: GAS UMAA2166 growth inhibition – luminescence, BacTiterGlo, counter-screen for streptokinase expression inhibitor project, dose response (AID 1915); assay type: functional, organism-based;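 further: potency for reduction of bacterial viability or growth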
[4] = blockade of melanocortin 4 receptor signaling – cell-based, plate reader, cherry pick, counter-screen for LGR2 antagonist project, dose response (AID 743444); assay type: functional;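 further: transfected HEK 293 cells stimulated with alpha-MSH peptide; potency of inhibitors of the alpha-MSH evoked signal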
[5] = target: T5, Microphthalmia-associated transcription factor (Homo sapiens, UniProt O75030); assay: reducers of TRPM1 reporter luminescence, concentration series – cell-based, SK-MEL-5, cherry-picked, set 3, MITF inhibitor project, dose response (AID 493073); assay type: functional;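 further: SK-MEL-5 melanoma cells with luciferase driven by the MITF target TRPM1 promoter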
T5 sequence (O75030 whole entry): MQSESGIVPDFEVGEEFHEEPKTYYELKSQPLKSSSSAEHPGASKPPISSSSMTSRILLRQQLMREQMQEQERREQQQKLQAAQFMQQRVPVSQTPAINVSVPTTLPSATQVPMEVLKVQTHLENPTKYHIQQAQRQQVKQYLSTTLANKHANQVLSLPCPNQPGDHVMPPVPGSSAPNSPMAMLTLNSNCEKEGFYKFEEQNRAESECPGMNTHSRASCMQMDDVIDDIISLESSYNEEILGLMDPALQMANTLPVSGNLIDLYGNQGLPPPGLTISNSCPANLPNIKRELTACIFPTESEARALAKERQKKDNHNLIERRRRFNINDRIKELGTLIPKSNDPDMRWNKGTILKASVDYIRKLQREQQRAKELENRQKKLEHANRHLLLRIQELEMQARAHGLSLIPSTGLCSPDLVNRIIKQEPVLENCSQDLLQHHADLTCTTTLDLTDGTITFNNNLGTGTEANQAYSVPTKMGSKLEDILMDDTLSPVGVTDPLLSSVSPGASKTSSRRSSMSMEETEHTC

[6] = A Cell Based Secondary Assay To Explore Cytotoxicity of Compounds that Sensitize Mycobacterium Tuberculosis to Beta-Lactam Antibiotics.; assay type: functional
Paired box protein Pax-8 = Paired box protein Pax-8 (Homo sapiens, UniProt Q06710); assay: PAX8 transcriptional activity inhibition in RMG-I – RMG-I cells, luciferase, cherry-pick, dose response (AID 687027); assay type: functional, cell-based;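 further: luciferase reporter driven by Pax8 target thyroperoxidase promoter measured by SteadyGlo luminescence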
Chain of Paired box protein Pax-8 (Q06710 whole entry): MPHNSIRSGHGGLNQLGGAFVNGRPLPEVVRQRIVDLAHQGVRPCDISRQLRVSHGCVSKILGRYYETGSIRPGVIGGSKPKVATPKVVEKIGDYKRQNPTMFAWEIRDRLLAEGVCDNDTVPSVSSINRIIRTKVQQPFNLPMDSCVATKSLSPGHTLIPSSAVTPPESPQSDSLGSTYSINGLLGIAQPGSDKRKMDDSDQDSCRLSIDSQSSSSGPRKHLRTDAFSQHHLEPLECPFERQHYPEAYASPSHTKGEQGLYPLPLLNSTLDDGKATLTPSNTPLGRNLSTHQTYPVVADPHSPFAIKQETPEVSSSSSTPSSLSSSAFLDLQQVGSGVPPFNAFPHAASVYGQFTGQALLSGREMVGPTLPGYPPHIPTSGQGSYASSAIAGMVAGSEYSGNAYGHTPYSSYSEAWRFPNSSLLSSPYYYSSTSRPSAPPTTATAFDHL

[7] = toxicity toward HepG2 liver cells – cell-based, plate reader, cherry-pick, antagonist series, cytotoxicity control, dose response (AID 743416); assay type: functional
[8] = viability loss in HEK293 cells – cell-based, plate reader, cherry-picked samples, cytotoxicity control, dose response (AID 743446); assay type: functional
[9] = blockers of bursicon-stimulated LGR2 cAMP reporter – cell-based, HEK293, CRE-luciferase reporter, cherry pick, set 2, dose response (AID 743343); assay type: functional;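 further: transfected cells were stimulated with diluted bursicon conditioned medium after compound addition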
[10] = A549 cell cytotoxicity, dose response, cytotoxicity control, plate reader, cherry-pick, antagonist series (AID 743412); assay type: functional, cell-based
INS1 = assay: INS-1E survival protection against cytokine death – cell-based, luminescence, retest, dose response (AID 449756); assay type: functional; details: Rattus norvegicus;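 further: cell death triggered by IL-1 beta plus TNF-alpha plus IFN-gamma mixture; protective hits raise ATP signal compared with cytokine alone wells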
[11] = NIH3T3 cell viability loss – ATP luminescence, mouse fibroblasts, counter-screen, dose response (AID 2010); assay type: functional, cell-based;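 further: cells exposed to compound for about 90 hours before reading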
[12] = target: Serine/threonine-protein phosphatase PP1-alpha catalytic subunit (Homo sapiens, UniProt P62136); assay: inhibition of protein phosphatase 1 activity – biochemical, fluorescence, dose response (AID 2403);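 further: phosphatase turnover of OMFP into fluorescent 3-O-methylfluorescein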
Chain of Serine/threonine-protein phosphatase PP1-alpha catalytic subunit (P62136 whole entry): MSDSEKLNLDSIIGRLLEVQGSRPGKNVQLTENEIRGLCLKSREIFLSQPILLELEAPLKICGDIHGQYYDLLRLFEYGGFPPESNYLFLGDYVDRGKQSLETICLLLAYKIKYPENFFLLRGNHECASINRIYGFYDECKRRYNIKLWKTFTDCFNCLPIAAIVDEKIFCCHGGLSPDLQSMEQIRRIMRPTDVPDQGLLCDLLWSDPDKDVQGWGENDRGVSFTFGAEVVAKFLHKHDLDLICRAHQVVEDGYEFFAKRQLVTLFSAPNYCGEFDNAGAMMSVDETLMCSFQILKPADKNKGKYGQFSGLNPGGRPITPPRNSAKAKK

[13] = Trypanosoma cruzi growth suppression in host cells – NIH3T3 host cells, beta-gal luminescence, confirmation (AID 2044); assay type: functional, cell-based;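 further: intracellular parasites grown in NIH/3T3 mouse fibroblasts as host cells; luminescent beta-galactosidase reporter signal from transgenic T. cruzi replicating inside host cells; inhibitors lower the luminescence signal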
[14] = target: Serine/threonine-protein phosphatase (Homo sapiens, UniProt Q9BPW0); assay: Counterscreen for inhibitors of PP1: fluorescence-based biochemical high throughput dose response assay to identify inhibitors of Protein Phosphatase 5 (PP5). [Related pubchem assays: 2034 (Summary (PP5 inhibitors)), 1987 (PP5 inhibitors in singlate), 2235 (PP1 inhibitors in singlate)]
Chain of Serine/threonine-protein phosphatase (Q9BPW0 whole entry): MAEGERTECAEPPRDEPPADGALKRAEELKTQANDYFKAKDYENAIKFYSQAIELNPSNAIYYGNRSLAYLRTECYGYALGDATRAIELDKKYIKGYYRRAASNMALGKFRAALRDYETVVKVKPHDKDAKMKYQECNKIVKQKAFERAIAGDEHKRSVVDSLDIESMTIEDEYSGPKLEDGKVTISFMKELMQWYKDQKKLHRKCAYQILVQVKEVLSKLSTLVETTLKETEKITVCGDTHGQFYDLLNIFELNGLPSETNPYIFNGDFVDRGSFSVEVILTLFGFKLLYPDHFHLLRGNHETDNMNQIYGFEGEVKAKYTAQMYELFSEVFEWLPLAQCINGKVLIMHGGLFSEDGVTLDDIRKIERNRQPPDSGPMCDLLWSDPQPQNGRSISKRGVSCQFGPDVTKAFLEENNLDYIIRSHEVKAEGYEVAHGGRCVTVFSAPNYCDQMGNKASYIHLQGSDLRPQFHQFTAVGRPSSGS

SMILES: O=C(O)c1ccccc1-c1ccccc1C(=O)Nc1ccc(-c2nc3cc(Cl)ccc3o2)cc1
- IC50 [1]: > 50 µM (active)
- IC50 (Aminopeptidase N): 32.6 µM (active)
- EC50 (Streptokinase A): > 150 µM (not active)
- EC50 [2]: 7.55 µM (active)
- EC50 (Protein RecA): 11.7 µM (active)
- IC50 (Genome polyprotein): 54 µM (active)
- AC50 [3]: 3.18 µM (active)
- EC50 (Streptococcus): 14 µM (active)

SMILES: Cn1nnnc1Sc1ncnc2scc(-c3cccc(F)c3)c12
- AC50 [4]: 12 µM (active)
- AC50 [5]: 5.98 µM (active)
- CC50 [6]: 17.6 µM (active)
- AC50 (Paired box protein Pax-8): 2.64 µM (active)
- AC50 [7]: 6.73 µM (active)
- AC50 [8]: 6.26 µM (active)
- AC50 [9]: 6.24 µM (active)
- AC50 [10]: 7.53 µM (active)

SMILES: COc1ccc(Sc2nc(-c3ccccn3)ncc2OC)cc1
- AC50 (INS1): 5.13 µM (active)
- EC50 [11]: > 60 µM (inconclusive)
- IC50 [12]: 6.04 µM (active)
- EC50 [13]: 1.9 µM (active)
- IC50 [14]: > 67 µM (not active)
